# Measurements published in ChEMBL document CHEMBL2407067, “Pyridone-conjugated monobactam antibiotics with gram-negative activity” (J Med Chem, 2013).
# What was measured:
# Acinetobacter baumannii = test: Antibacterial activity against Acinetobacter baumannii AB-3167 by broth microdilution method; format: functional
# Klebsiella pneumoniae [1] = test: Antibacterial activity against Klebsiella pneumoniae 1487-07 by broth microdilution method; format: functional
# Pseudomonas aeruginosa [2] = test: Antibacterial activity against Pseudomonas aeruginosa 1042-06 by broth microdilution method; format: functional
# Pseudomonas aeruginosa [3] = test: microbe, parasite or virus in culture; conditions: 1091-05
# Description: Antibacterial activity against Pseudomonas aeruginosa 1091-05 by broth microdilution method
# Klebsiella pneumoniae [4] = test: Antibacterial activity against Klebsiella pneumoniae 1000-02 by broth microdilution method; format: functional
# Pseudomonas aeruginosa [5] = test: Antibacterial activity against Pseudomonas aeruginosa from cystic fibrosis patients by broth microdilution method; format: functional
# Acinetobacter sp. = test: Antibacterial activity against Acinetobacter spp. by broth microdilution method; format: functional
# Escherichia coli [6] = test: Antibacterial activity against Escherichia coli expressing defined beta-lactamase by broth microdilution method; format: functional
# Escherichia coli [7] = test: Antibacterial activity against Escherichia coli expressing CTX-M by broth microdilution method; format: functional
# Escherichia coli [8] = test: Antibacterial activity against Escherichia coli expressing ESBL by broth microdilution method; format: functional
# Klebsiella pneumoniae [9] = test: Antibacterial activity against Klebsiella pneumoniae expressing ESBL by broth microdilution method; format: functional
# Klebsiella pneumoniae [10] = test: Antibacterial activity against Klebsiella pneumoniae expressing defined beta-lactamase by broth microdilution method; format: functional
# Pseudomonas aeruginosa [11] = test: Antibacterial activity against Pseudomonas aeruginosa expressing metallo-beta-lactamase by broth microdilution method; format: functional
SMILES,MIC (Acinetobacter baumannii) [µg/mL],MIC (Klebsiella pneumoniae [1]) [µg/mL],MIC (Pseudomonas aeruginosa [2]) [µg/mL],MIC (Pseudomonas aeruginosa [3]) [µg/mL],MIC (Klebsiella pneumoniae [4]) [µg/mL],further results
CC(C)(O/N=C(\C(=O)N[C@@H]1C(=O)N(S(=O)(=O)O)[C@@H]1CNS(=O)(=O)NCc1cc(=O)c(O)cn1O)c1csc(N)n1)C(=O)O,1,32,16,1,,
NCCO/N=C(\C(=O)N[C@@H]1C(=O)N(S(=O)(=O)O)[C@@H]1CNC(=O)NCc1cc(=O)c(O)cn1O)c1csc(N)n1,4,> 64,> 64,4,> 64,
Nc1nc(/C(=N/OCCCC(=O)O)C(=O)N[C@@H]2C(=O)N(S(=O)(=O)O)[C@@H]2CNC(=O)NCc2cc(=O)c(O)cn2O)cs1,0.5,> 64,8,0.5,32,
CC(C)(O/N=C(\C(=O)N[C@@H]1C(=O)N(S(=O)(=O)O)[C@@H]1CNC(=O)c1cccc(O)c1O)c1csc(N)n1)C(=O)O,16,64,32,16,64,
CC(C)(O/N=C(\C(=O)N[C@@H]1C(=O)N(S(=O)(=O)O)[C@@H]1CNC(=O)c1cc(=O)c(O)c[nH]1)c1csc(N)n1)C(=O)O,0.125,,0.5,0.125,0.5,
O=C(O)c1cn(C2CC2)c2cc(N3CCNCC3)c(F)cc2c1=O [CIPROFLOXACIN],0.06,,64,,,MIC50 (Pseudomonas aeruginosa [5]): 2 µg/mL; MIC90 (Pseudomonas aeruginosa [5]): 16 µg/mL; MIC50 (Acinetobacter sp.): 0.5 µg/mL; MIC90 (Acinetobacter sp.): > 64 µg/mL; MIC50 (Escherichia coli [6]): 0.03 µg/mL; MIC90 (Escherichia coli [6]): 0.06 µg/mL; MIC90 (Escherichia coli [7]): > 64 µg/mL; MIC50 (Escherichia coli [8]): > 64 µg/mL; MIC90 (Escherichia coli [8]): > 64 µg/mL; MIC50 (Klebsiella pneumoniae [9]): 0.25 µg/mL; MIC50 (Klebsiella pneumoniae [10]): 0.5 µg/mL; MIC50 (Pseudomonas aeruginosa [11]): 32 µg/mL; MIC90 (Pseudomonas aeruginosa [11]): > 64 µg/mL

# Continued by falling MIC (Pseudomonas aeruginosa [3]), values first:
MIC (Acinetobacter baumannii) [µg/mL],MIC (Klebsiella pneumoniae [1]) [µg/mL],MIC (Pseudomonas aeruginosa [2]) [µg/mL],MIC (Pseudomonas aeruginosa [3]) [µg/mL],MIC (Klebsiella pneumoniae [4]) [µg/mL],SMILES,further results
4,4,4,4,,Cn1cc(O)c(=O)cc1C(=O)NC[C@@H]1[C@H](NC(=O)/C(=N\OC(C)(C)C(=O)O)c2csc(N)n2)C(=O)N1S(=O)(=O)O,
1,16,> 64,1,16,Nc1nc(/C(=N/OCc2cscn2)C(=O)N[C@@H]2C(=O)N(S(=O)(=O)O)[C@@H]2CNC(=O)NCc2cc(=O)c(O)cn2O)cs1,
1,4,2,1,0.25,CC(C)(O/N=C(\C(=O)N[C@@H]1C(=O)N(S(=O)(=O)O)[C@@H]1CNC(=O)c1cc(=O)c(O)cn1CC(=O)O)c1csc(N)n1)C(=O)O,
,4,8,1,,Nc1nc(/C(=N/OC2(C(=O)O)CCCCC2)C(=O)N[C@@H]2C(=O)N(S(=O)(=O)O)[C@@H]2CNC(=O)NCc2cc(=O)c(O)cn2O)cs1,
0.5,32,16,0.5,8,Nc1nc(/C(=N/OCc2nnn[nH]2)C(=O)N[C@@H]2C(=O)N(S(=O)(=O)O)[C@@H]2CNC(=O)NCc2cc(=O)c(O)cn2O)cs1,
0.5,32,16,0.5,32,Nc1nc(/C(=N/OCCO)C(=O)N[C@@H]2C(=O)N(S(=O)(=O)O)[C@@H]2CNC(=O)NCc2cc(=O)c(O)cn2O)cs1,
0.125,,,0.125,,CC(C)(O/N=C(\C(=O)N[C@@H]1C(=O)N(S(=O)(=O)O)[C@@H]1Cn1cc(-c2cc(=O)c(O)cn2O)nn1)c1csc(N)n1)C(=O)O,
